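Cells were grown in 96-well plates and exposed to each compound for 48 hours at five concentrations; endpoints were interpolated linearly between bracketing concentrations, or set to the highest concentration if not reached. GI50: concentration for 50% inhibition of growth. TGI: total growth inhibition.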
Tests used:
Assay in all cases: NCI anticancer screen, dose series, 48 h
[1] = tested on: CAKI-1 renal
[2] = tested on: OVCAR-3 ovarian
[3] = tested on: RXF 393 renal
[4] = tested on: SR leukemia
[5] = tested on: NCI-H522 lung
[6] = tested on: RPMI-8226 leukemia
[7] = tested on: BT-549 breast
[8] = tested on: MCF7 breast
[9] = tested on: MDA-MB-231 breast
[10] = tested on: PC-3 prostate

| Compound | TGI [1] [µM] | TGI [2] [µM] | TGI [3] [µM] | TGI [4] [µM] | TGI [5] [µM] | TGI [6] [µM] | GI50 [7] [µM] | TGI [7] [µM] | GI50 [1] [µM] | GI50 [8] [µM] | TGI [8] [µM] | GI50 [9] [µM] | TGI [9] [µM] | GI50 [5] [µM] | GI50 [2] [µM] | GI50 [10] [µM] | TGI [10] [µM] | GI50 [6] [µM] | GI50 [3] [µM] |
| --- | --- | --- | --- | --- | --- | --- | --- | --- | --- | --- | --- | --- | --- | --- | --- | --- | --- | --- | --- |
| Cc1ccc(S(=O)(=O)OC[C@@H]2CO2)cc1 | > 100 | > 100 | > 100 | > 100 | – | – | – | – | – | – | – | – | – | – | – | – | – | – | – |
| NC1=NCCC1(c1ccccc1)c1ccccn1 (centres undefined) | > 100 | > 100 | > 100 | – | > 100 | > 100 | – | – | – | – | – | – | – | – | – | – | – | – | – |
| COC(=O)c1ccccc1NC(=O)C(=O)Cc1nc2c3c(ccc2[nH]c1=O)C(=O)c1ccccc1C3=O | > 100 | > 100 | 26.3 | – | 35.7 | > 100 | – | – | – | – | – | – | – | – | – | – | – | – | – |
| COc1cc2ccnc([C@@H](OC(=O)c3ccccc3)c3ccc(OC)c(OC)c3OC)c2cc1OC | > 100 | > 100 | > 100 | – | > 100 | > 100 | – | – | – | – | – | – | – | – | – | – | – | – | – |
| O=C(CCc1nc(=S)[nH][nH]1)Nc1ccc(Cl)c(Cl)c1 | > 100 | > 100 | – | > 100 | 72.1 | > 100 | – | – | – | – | – | – | – | – | – | – | – | – | – |
| Nc1nc(-n2c(-c3ccccc3)nc3c(Br)cc(Br)cc3c2=O)nnc1-c1cccc(Cl)c1Cl | > 100 | 53.6 | 58.1 | – | > 100 | > 100 | 19.1 | > 100 | 17 | 4.9 | > 100 | 4.22 | 18.3 | 20.8 | 6.84 | 26.6 | > 100 | 6.05 | 14.5 |
| O=C(CCNC12CC3CC(CC(C3)C1)C2)c1ccccc1 | – | – | 53.5 | 37.1 | 32 | 26.4 | – | 85.3 | – | – | 34.9 | – | 69.8 | – | – | – | 50.5 | – | – |
| Cc1nc2c(ccc3ncccc32)[nH]1 | > 100 | > 100 | > 100 | – | > 100 | > 100 | – | – | – | – | – | – | – | – | – | – | – | – | – |
| Cc1c(C(=O)C/C(=N/NC(=O)c2ccccc2O)C(=O)Nc2ccccc2C(C)C)[n+](=O)c2ccccc2n1[O-] | > 100 | > 100 | > 100 | – | 65.8 | – | – | – | – | – | – | – | – | – | – | – | – | – | – |
| COc1ccc(CC2c3cc4c(cc3CCN2C)OCO4)c(C=O)c1OC (centres undefined) | > 100 | > 100 | – | – | > 100 | > 100 | – | > 100 | – | – | > 100 | – | > 100 | – | – | – | > 100 | – | – |
| CCCCCCCCCCCC(=O)OCCOCCOCCOCCOCCOCc1ccccc1 | > 100 | > 100 | > 100 | > 100 | > 100 | > 100 | – | – | – | – | – | – | – | – | – | – | – | – | – |
| CC1(C)C(=O)/C=C\C(=O)C(C)(C)C2=CC=C(O2)C(C)(C)C(=O)/C=C\C(=O)C(C)(C)C2=CC=C1O2 | > 100 | > 100 | > 100 | > 100 | > 100 | – | – | – | – | – | – | – | – | – | – | – | – | – | – |
| CCOC(=O)C(C)(C)Oc1ccc2c(-c3ccccc3)cc(=O)oc2c1 | – | > 100 | – | 88.7 | – | 49.9 | – | – | – | – | – | – | – | – | – | – | – | – | – |
| CCOC(=O)CCC1(C(=O)OCC)CCCCC1=O (centres undefined) | – | > 100 | > 100 | – | > 100 | > 100 | – | – | – | – | – | – | – | – | – | – | – | – | – |
| Fc1ccc(NC(=S)SCc2ccc3c(c2)OCO3)cc1F | > 100 | > 100 | 32.2 | 43.9 | 35.4 | – | – | 51.4 | – | – | 36.2 | – | > 100 | – | – | – | 76.6 | – | – |
| CCCC1C(=O)CCc2c(OC)ccc(OC)c21 (centres undefined) | > 100 | > 100 | > 100 | – | – | > 100 | – | – | – | – | – | – | – | – | – | – | – | – | – |
| CC1CCc2nc[nH]c(=O)c21 (centres undefined) | > 100 | > 100 | > 100 | – | > 100 | > 100 | > 100 | > 100 | > 100 | > 100 | > 100 | > 100 | > 100 | > 100 | > 100 | > 100 | > 100 | > 100 | > 100 |
| CN(C)N=Nc1ccc(C(N)=O)cc1 | > 100 | > 100 | > 100 | > 100 | > 100 | > 100 | – | – | – | – | – | – | – | – | – | – | – | – | – |
| CN(C)C(=S)N=C(Nc1ccccc1)Nc1ccccc1 | > 100 | > 100 | > 100 | > 100 | > 100 | > 100 | – | – | – | – | – | – | – | – | – | – | – | – | – |
| CCOC1Oc2ccccc2C(=O)/C1=C/Nc1ccc(C(C)=O)cc1 (centres undefined) | 45.3 | 43.8 | 72.6 | – | 87.3 | 68.3 | 29 | 92.3 | 19 | 26.7 | > 100 | 20 | 47.8 | 27.1 | 17.2 | 25.4 | 93.3 | 15.9 | 27 |
| OCC1=CC(NC2CC(CO)C(O)C(O)C2O)C(O)C(O)C1O (centres undefined) | – | > 100 | > 100 | – | > 100 | > 100 | – | – | – | – | – | – | – | – | – | – | – | – | – |
| COc1cc2cc(OC)c3cc4c(cc3c2c(OC)c1OC)OCO4 | > 100 | > 100 | > 100 | 82.6 | 56.6 | 52.9 | – | – | – | – | – | – | – | – | – | – | – | – | – |
| C1=C2/CC[C@H](Sc3ccccc3)C2C2(CCCCC/1)OCCO2 (some centres undefined) | – | 72.1 | 43.4 | > 100 | – | 73.7 | – | – | – | – | – | – | – | – | – | – | – | – | – |
| CCN(CC)CCSc1c2ccccc2nc2cc(NCC(=O)Nc3ccccc3-c3ccccc3NC(=O)CNc3ccc4c(SCCN(CC)CC)c5ccccc5nc4c3)ccc12 | > 100 | > 100 | > 100 | > 100 | > 100 | > 100 | – | – | – | – | – | – | – | – | – | – | – | – | – |
| O=C(O)CCC(NC(=O)c1ccc(Nc2nc3ccccc3nc2-c2cccs2)cc1)C(=O)O (centres undefined) | > 100 | > 100 | > 100 | > 100 | > 100 | > 100 | – | – | – | – | – | – | – | – | – | – | – | – | – |
| CC(=O)[CH-]C(=O)c1ccccc1.CC(=O)[CH-]C(=O)c1ccccc1.CN(C)c1ccc([O-])cc1.CN(C)c1ccc([O-])cc1.Cl.[Ti+4] | > 31.6 | – | > 31.6 | – | 24 | > 31.6 | – | – | 21 | – | – | – | – | 12.3 | – | – | – | 16.8 | 27.3 |
| COC1/C=C/OC2(C)Oc3c(C)c(O)c4c(O)c(c(/C=N/Nc5ccc([N+](=O)[O-])cc5[N+](=O)[O-])c(O)c4c3C2=O)NC(=O)C(C)=C/C=C/C(C)C(O)C(C)C(O)C(C)C(OC(C)=O)C1C (centres undefined) | > 50 | 2.52 | 1.66 | – | – | 14.5 | – | – | 2.9 | 2 | > 50 | 1.32 | 4.01 | – | 1.1 | 1.34 | 3.92 | 1.96 | 0.899 |

— PubChem BioAssay (NCI)
